{
  "source": "patent US7001906B2",
  "about": "“Pyrido-pyrido-pyrrolo pyrrolo-indole and pyrido-pyrrolo pyrrolo carbazole derivatives, method for the production thereof and pharmaceutical compositions containing said derivatives” (Les Laboratoires Servier, priority 2001, dated 2006)",
  "assay_type_in_all_cases": "cell-based",
  "key": {"[1]": {"test_system": "neuroblastoma SK-N-MC", "assay": "In vitro cytotoxicity on human cell lines: neuroblastoma SK-N-MC", "details": "96 h, incubation 4 days", "protocol": "(§1) Murine leukaemia L1210 was used in vitro. The cells are cultured in RPMI 1640 complete culture medium containing 10% foetal calf serum, 2 mM glutamine, 50 units/ml of penicillin, 50 μg/ml of streptomycin and 10 mM Hepes, pH: 7.4. The cells are distributed on microplates and exposed to the cytotoxic compounds for 4 doubling periods, or 48 hours. The number of viable cells is then quantified by means of a colorimetric assay, the Microculture Tetrazolium Assay (J. Carmichael et al., Cancer Res., 47, 936–942, (1987)). The results are expressed as IC50, the concentration of cytotoxic agent which inhibits the proliferation of the treated cells by 50%.\n(§2) The compounds of the invention were also tested on human cell lines according to the same experimental protocol as that described for murine leukaemia L1210, but with incubation times of 4 days instead of 2 days."}, "[2]": {"test_system": "epidermoid carcinoma A431", "assay": "In vitro cytotoxicity on human cell lines: epidermoid carcinoma A431", "details": "A-431, 96 h, epidermoid carcinoma A431, incubation 4 days", "protocol": "as §1, §2"}, "[3]": {"test_system": "small cell lung carcinoma H 69", "assay": "In vitro cytotoxicity on human cell lines: small cell lung carcinoma H 69", "details": "96 h, small cell lung carcinoma H 69, incubation 4 days", "protocol": "as §1, §2"}, "[4]": {"test_system": "Murine leukaemia L1210", "assay": "In vitro cytotoxicity, murine leukaemia L1210 (Microculture Tetrazolium Assay)", "details": "Mus musculus; L1210, exposure 4 doubling periods, or 48 hours; read-out: IC50, the concentration of cytotoxic agent which inhibits the proliferation of the treated cells by 50%", "protocol": "as §1"}},
  "data": [
    {"smiles": "O=C1NC(=O)c2c1c1c3ccccc3[nH]c1c1c2c2cccnc2n1[C@@H]1O[C@H](CO)[C@@H](O)[C@H](O)[C@H]1O", "note": "[Example 3, 13-(β-D-glucopyranosyl)-12,13-dihydro-5H-pyrido[3′,2′:4,5]pyrrolo-[2,3-a]pyrrolo[3,4-c]carbazole-5,7(6H)-dione]", "values": [
      {"measurement": "IC50", "setting": "[1]", "result": "< 1000", "unit": "nM"},
      {"measurement": "IC50", "setting": "[2]", "result": "< 1000", "unit": "nM"},
      {"measurement": "IC50", "setting": "[3]", "result": "< 1000", "unit": "nM"}
    ]},
    {"smiles": "O=C1NC(=O)c2c1c1c3cc(Br)ccc3[nH]c1c1c2c2cccnc2n1[C@@H]1O[C@H](CO)[C@@H](O)[C@H](O)[C@H]1O", "note": "[Example 4, 9-bromo-13-(β-D-glucopyranosyl)-12,13-dihydro-5H-pyrido-[3′,2′:4,5]pyrrolo[2,3-a]pyrrolo [3,4-c]carbazole-5,7(6H)-dione]", "values": [
      {"measurement": "IC50", "setting": "[4]", "result": "< 100", "unit": "nM"},
      {"measurement": "IC50", "setting": "[1]", "result": "< 1000", "unit": "nM"},
      {"measurement": "IC50", "setting": "[2]", "result": "< 1000", "unit": "nM"},
      {"measurement": "IC50", "setting": "[3]", "result": "< 1000", "unit": "nM"}
    ]},
    {"smiles": "O=C1NC(=O)c2c1c1c3cc([N+](=O)[O-])ccc3[nH]c1c1c2c2cccnc2n1[C@@H]1O[C@H](CO)[C@@H](O)[C@H](O)[C@H]1O", "note": "[Example 5, 9-nitro-13-(β-D-glucopyranosyl)-12,13-dihydro-5H-pyrido-[3′,2′:4,5]pyrrolo[2,3-a]pyrrolo[3,4-c]carbazole-5,7(6H)-dione]", "values": [
      {"measurement": "IC50", "setting": "[4]", "result": "< 100", "unit": "nM"},
      {"measurement": "IC50", "setting": "[1]", "result": "< 1000", "unit": "nM"},
      {"measurement": "IC50", "setting": "[2]", "result": "< 1000", "unit": "nM"},
      {"measurement": "IC50", "setting": "[3]", "result": "< 1000", "unit": "nM"}
    ]},
    {"smiles": "O=C1NC(=O)c2c1c1c3cccnc3[nH]c1c1c2c2ccccc2n1[C@@H]1O[C@H](CO)[C@@H](O)[C@H](O)[C@H]1O", "note": "[Example 9, 12-(β-D-glucopyranosyl)-12,13-dihydro-5H-pyrido[3′,2′:4,5]pyrrolo-[2,3-a]pyrrolo[3,4-c]carbazole-5,7(6H)-dione]", "values": [
      {"measurement": "IC50", "setting": "[4]", "result": "< 100", "unit": "nM"}
    ]},
    {"smiles": "O=C1NC(=O)c2c1c1c3cccnc3[nH]c1c1c2c2cccnc2n1[C@@H]1O[C@H](CO)[C@@H](O)[C@H](O)[C@H]1O", "note": "[Example 12, 12-(β-D-glucopyranosyl)-12,13-dihydro-5H-pyrido[2,3-b]-pyrido[3′,2′:4,5]pyrrolo[3,2-g]pyrrolo[3,4-e]indole-5,7(6H)-dione]", "values": [
      {"measurement": "IC50", "setting": "[4]", "result": "< 100", "unit": "nM"}
    ]},
    {"smiles": "CN1C(=O)c2c(c3c4cccnc4n([C@@H]4O[C@H](CO)[C@@H](O)[C@H](O)[C@H]4O)c3c3[nH]c4ccccc4c23)C1=O", "note": "[Example 17, 13-(β-D-glucopyranosyl)-6-methyl-12,13-dihydro-5H-pyrido-[3′,2′:4,5]pyrrolo [2,3-a]pyrrolo [3,4-c]carbazole-5,7(6H)-dione]", "values": [
      {"measurement": "IC50", "setting": "[1]", "result": "< 1000", "unit": "nM"},
      {"measurement": "IC50", "setting": "[2]", "result": "< 1000", "unit": "nM"},
      {"measurement": "IC50", "setting": "[3]", "result": "< 1000", "unit": "nM"}
    ]},
    {"smiles": "CN1C(=O)c2c(c3c4cccnc4n([C@@H]4O[C@H](CO)[C@@H](O)[C@H](O)[C@H]4O)c3c3[nH]c4ccc(Br)cc4c23)C1=O", "note": "[Example 19, 13-(β-D-glucopyranosyl)-9-bromo-6-methyl-12,13-dihydro-5H-pyrido[3′,2′:4,5]pyrrolo[2,3-a]pyrrolo[3,4-c]carbazole-5,7(6H)-dione]", "values": [
      {"measurement": "IC50", "setting": "[1]", "result": "< 1000", "unit": "nM"},
      {"measurement": "IC50", "setting": "[2]", "result": "< 1000", "unit": "nM"},
      {"measurement": "IC50", "setting": "[3]", "result": "< 1000", "unit": "nM"}
    ]}
  ]
}
